Assay results: ChEMBL document CHEMBL5335843, “Application of tobramycin benzyl ether as an antibiotic adjuvant capable of sensitizing multidrug-resistant Gram-negative bacteria to rifampicin” (2024)
Active and inactive are the calls of the source. The rule behind the calls is not given here.

Assays:
Pseudomonas aeruginosa [1] = test: Antibacterial activity against multi-drug resistant Pseudomonas aeruginosa clinical isolate 101243 assessed as inhibition of bacterial growth incubated for 18 hrs by two fold broth microdilution assay; format: functional
Acinetobacter baumannii [2] = test: Antibacterial activity against multi-drug resistant Acinetobacter baumannii clinical isolate AB027 assessed as inhibition of bacterial growth incubated for 18 hrs by two fold broth microdilution assay; format: functional
Acinetobacter baumannii [3] = test: Antibacterial activity against multi-drug resistant Acinetobacter baumannii clinical isolate 110193 assessed as inhibition of bacterial growth incubated for 18 hrs by two fold broth microdilution assay; format: functional
Escherichia coli [4] = test: Antibiotic adjuvant activity against multi-drug resistant Escherichia coli clinical isolate 94393 assessed as rifampicin MIC incubated for 18 hrs in presence of Rifampicin by two fold broth microdilution checkerboard assay; format: functional
Acinetobacter baumannii [5] = test: Antibiotic adjuvant activity against multi-drug resistant Acinetobacter baumannii clinical isolate AB031 assessed as rifampicin MIC incubated for 18 hrs in presence of Rifampicin by two fold broth microdilution checkerboard assay; format: functional
Pseudomonas aeruginosa [6] = test: Antibiotic adjuvant activity against multi-drug resistant Pseudomonas aeruginosa clinical isolate 101243 assessed as inhibition of bacterial growth incubated for 18 hrs in presence of Rifampicin by two fold broth microdilution checkerboard assay; format: functional
Pseudomonas aeruginosa [7] = test: Antibiotic adjuvant activity against multi-drug resistant Pseudomonas aeruginosa clinical isolate PA259 assessed as inhibition of bacterial growth incubated for 18 hrs in presence of Rifampicin by two fold broth microdilution checkerboard assay; format: functional
Escherichia coli [8] = test: Antibiotic adjuvant activity against multi-drug resistant Escherichia coli clinical isolate 107115 assessed as inhibition of bacterial growth incubated for 18 hrs in presence of Rifampicin by two fold broth microdilution checkerboard assay; format: functional
Pseudomonas aeruginosa [9] = test: Antibiotic adjuvant activity against multi-drug resistant Pseudomonas aeruginosa clinical isolate PA262 assessed as fold potentiation incubated for 18 hrs in presence of Rifampicin by two fold broth microdilution checkerboard assay; format: functional
Escherichia coli [10] = test: Antibiotic adjuvant activity against multi-drug resistant Escherichia coli clinical isolate 107115 assessed as fold potentiation incubated for 18 hrs in presence of Rifampicin by two fold broth microdilution checkerboard assay; format: functional
Escherichia coli [11] = test: Antibiotic adjuvant activity against multi-drug resistant Escherichia coli clinical isolate 94474 assessed as fold potentiation incubated for 18 hrs in presence of Rifampicin by two fold broth microdilution checkerboard assay; format: functional
Pseudomonas aeruginosa [12] = test: Antibiotic adjuvant activity against multi-drug resistant Pseudomonas aeruginosa clinical isolate 101243 assessed as fractional inhibitory concentration index incubated for 18 hrs in presence of Rifampicin by two fold broth microdilution checkerboard assay; format: functional
Acinetobacter baumannii [13] = test: Antibiotic adjuvant activity against multi-drug resistant Acinetobacter baumannii clinical isolate 110193 assessed as fractional inhibitory concentration index incubated for 18 hrs in presence of Rifampicin by two fold broth microdilution checkerboard assay; format: functional
Pseudomonas aeruginosa [14] = test: Antibiotic adjuvant activity against multi-drug resistant Pseudomonas aeruginosa clinical isolate PA114228 assessed as minocycline MIC incubated for 18 hrs in presence of minocycline by two fold broth microdilution checkerboard assay; format: functional
Escherichia coli [15] = test: Antibiotic adjuvant activity against multi-drug resistant Escherichia coli clinical isolate EC107115 assessed as minocycline MIC incubated for 18 hrs in presence of minocycline by two fold broth microdilution checkerboard assay; format: functional
Pseudomonas aeruginosa [16] = test: Antibiotic adjuvant activity against multi-drug resistant Pseudomonas aeruginosa clinical isolate PA264 assessed as inhibition of bacterial growth incubated for 18 hrs in presence of minocycline by two fold broth microdilution checkerboard assay; format: functional
Pseudomonas aeruginosa [17] = test: Antibiotic adjuvant activity against multi-drug resistant Pseudomonas aeruginosa clinical isolate PA101243 assessed as fold potentiation incubated for 18 hrs in presence of minocycline by two fold broth microdilution checkerboard assay; format: functional
Pseudomonas aeruginosa [18] = test: Antibiotic adjuvant activity against multi-drug resistant Pseudomonas aeruginosa clinical isolate PA262 assessed as fold potentiation incubated for 18 hrs in presence of minocycline by two fold broth microdilution checkerboard assay; format: functional
Pseudomonas aeruginosa [19] = test: Antibiotic adjuvant activity against multi-drug resistant Pseudomonas aeruginosa clinical isolate PA101243 assessed as fractional inhibitory concentration index incubated for 18 hrs in presence of minocycline by two fold broth microdilution checkerboard assay; format: functional
Escherichia coli [20] = test: Antibiotic adjuvant activity against multi-drug resistant Escherichia coli clinical isolate EC107115 assessed as fractional inhibitory concentration index incubated for 18 hrs in presence of minocycline by two fold broth microdilution checkerboard assay; format: functional
Pseudomonas aeruginosa [21] = test: Antibiotic adjuvant activity against multi-drug resistant Pseudomonas aeruginosa clinical isolate PA264 assessed as inhibition of bacterial growth incubated for 18 hrs in presence of doxycycline by two fold broth microdilution checkerboard assay; format: functional
Pseudomonas aeruginosa [22] = test: Antibiotic adjuvant activity against multi-drug resistant Pseudomonas aeruginosa clinical isolate PA114228 assessed as fold potentiation incubated for 18 hrs in presence of doxycycline by two fold broth microdilution checkerboard assay; format: functional
Pseudomonas aeruginosa [23] = test: Antibiotic adjuvant activity against multi-drug resistant Pseudomonas aeruginosa clinical isolate PA259 assessed as fold potentiation incubated for 18 hrs in presence of doxycycline by two fold broth microdilution checkerboard assay; format: functional
Pseudomonas aeruginosa [24] = test: Antibiotic adjuvant activity against multi-drug resistant Pseudomonas aeruginosa clinical isolate PA114228 assessed as fractional inhibitory concentration index incubated for 18 hrs in presence of doxycycline by two fold broth microdilution checkerboard assay; format: functional
Pseudomonas aeruginosa [25] = test: Antibiotic adjuvant activity against multi-drug resistant Pseudomonas aeruginosa clinical isolate PA259 assessed as fractional inhibitory concentration index incubated for 18 hrs in presence of doxycycline by two fold broth microdilution checkerboard assay; format: functional
Pseudomonas aeruginosa [26] = test: Antibiotic adjuvant activity against multi-drug resistant Pseudomonas aeruginosa clinical isolate PA264 assessed as fractional inhibitory concentration index incubated for 18 hrs in presence of doxycycline by two fold broth microdilution checkerboard assay; format: functional
Enterococcus faecium [27] = test: Antibacterial activity against Enterococcus faecium 114278 assessed as inhibition of bacterial growth incubated for 18 hrs by two fold broth microdilution assay; format: functional
Enterococcus faecium [28] = test: Antibiotic adjuvant activity against Enterococcus faecium 128149 assessed as inhibition of bacterial growth incubated for 18 hrs in presence of rifampicin by two fold broth microdilution checkerboard assay; format: functional
Staphylococcus aureus = test: Antibiotic adjuvant activity against methicilin-resistant Staphylococcus aureus assessed as inhibition of bacterial growth incubated for 18 hrs in presence of rifampicin by two fold broth microdilution checkerboard assay; format: functional
Enterococcus faecium [29] = test: Antibiotic adjuvant activity against Enterococcus faecium 114278 assessed as fractional inhibitory concentration index incubated for 18 hrs in presence of rifampicin by two fold broth microdilution checkerboard assay; format: functional
Pseudomonas aeruginosa [30] = test: Antibiotic adjuvant activity against Pseudomonas aeruginosa PAO1 assessed as fold potentiation incubated for 18 hrs in presence of Rifampicin by two fold broth microdilution checkerboard assay; format: functional
Escherichia coli [31] = test: Antibiotic adjuvant activity against Escherichia coli ATCC 25922 assessed as fold potentiation incubated for 18 hrs in presence of novobiocin by two fold broth microdilution checkerboard assay; format: functional
Cell membrane = test: Induction of outer membrane permeabilization in Escherichia coli ATCC 25922 assessed as increase fluorescence intensity by measuring NPN uptake factor by fluorescence based analysis; format: subcellular
Pseudomonas aeruginosa [32] = test: Antibiotic adjuvant activity against Pseudomonas aeruginosa PAO1 assessed as fold increase in MIC incubated for 18 hrs in presence of rifampicin and CAMHB Mg2+ media by two fold broth microdilution checkerboard assay; format: functional
Acinetobacter baumannii [33] = test: Antibiotic adjuvant activity against Acinetobacter baumannii ATCC 17978 assessed as fold potentiation incubated for 18 hrs in presence of rifampicin by two fold broth microdilution checkerboard assay relative to FBS; format: functional
Acinetobacter baumannii [34] = test: Antibiotic adjuvant activity against Acinetobacter baumannii ATCC 17978 at 8 to 11 ug/ml incubated for 18 hrs in presence of rifampicin and 10 % FBS media by two fold broth microdilution checkerboard assay; format: functional, organism-based; conditions: dose 8-11 µg/ml

Q: For `Cl.NC[C@H]1O[C@H](O[C@H]2[C@H](OCc3ccccc3)[C@@H](O[C@H]3O[C@H](COCc4ccccc4)[C@@H](OCc4ccccc4)[C@H](N)[C@H]3OCc3ccccc3)[C@H](N)C[C@@H]2N)[C@H](N)C[C@@H]1OCc1ccccc1`, which MIC (Pseudomonas aeruginosa [1]) is on record?
A: The MIC was 64 µg/mL.

Q: What about the MIC (Acinetobacter baumannii [2]) of the same compound?
A: Its MIC is 64 µg/mL.

Q: And the MIC (Acinetobacter baumannii [3])?
A: Its MIC is 64 µg/mL.

Q: What about the MIC (Escherichia coli [4]) of the same compound?
A: The MIC was 32 µg/mL.

Q: And the MIC (Acinetobacter baumannii [5])?
A: The MIC was 0.002 µg/mL.

Q: And the MIC (Pseudomonas aeruginosa [6])?
A: Its MIC is 8 µg/mL.

Q: What about the MIC (Pseudomonas aeruginosa [7]) of the same compound?
A: Its MIC is 8 µg/mL.

Q: And the MIC (Escherichia coli [8])?
A: Its MIC is 2 µg/mL.

Q: What about the “fold change (FC)” value (Pseudomonas aeruginosa [9]) of the same compound?
A: The value was 1.

Q: What about the “fold change (FC)” value (Escherichia coli [10]) of the same compound?
A: The value was 1024.

Q: What about the “fold change (FC)” value (Escherichia coli [11]) of the same compound?
A: The value was 256.

Q: And the “fractional inhibitory concentration index (FICI)” value (Pseudomonas aeruginosa [12])?
A: Its value is 0.126.

Q: What about the “fractional inhibitory concentration index (FICI)” value (Acinetobacter baumannii [13]) of the same compound?
A: Its value is 0.126.

Q: And the MIC (Pseudomonas aeruginosa [14])?
A: Its MIC is 128 µg/mL.

Q: What about the MIC (Escherichia coli [15]) of the same compound?
A: Its MIC is 1 µg/mL.

Q: And the MIC (Pseudomonas aeruginosa [16])?
A: The MIC was 8 µg/mL.

Q: What about the “fold change (FC)” value (Pseudomonas aeruginosa [17]) of the same compound?
A: Its value is 1.

Q: And the “fold change (FC)” value (Pseudomonas aeruginosa [18])?
A: The value was 1.

Q: What about the “fractional inhibitory concentration index (FICI)” value (Pseudomonas aeruginosa [19]) of the same compound?
A: The value was 1.063.

Q: And the “fractional inhibitory concentration index (FICI)” value (Escherichia coli [20])?
A: The value was 0.078.

Q: And the MIC (Pseudomonas aeruginosa [21])?
A: Its MIC is 8 µg/mL.

Q: And the “fold change (FC)” value (Pseudomonas aeruginosa [22])?
A: Its value is 1.

Q: And the “fold change (FC)” value (Pseudomonas aeruginosa [23])?
A: The value was 1.

Q: What about the “fractional inhibitory concentration index (FICI)” value (Pseudomonas aeruginosa [24]) of the same compound?
A: The value was 1.063.

Q: What about the “fractional inhibitory concentration index (FICI)” value (Pseudomonas aeruginosa [25]) of the same compound?
A: The value was 1.063.

Q: And the “fractional inhibitory concentration index (FICI)” value (Pseudomonas aeruginosa [26])?
A: The value was 1.063.

Q: And the MIC (Enterococcus faecium [27])?
A: The MIC was 8 µg/mL.

Q: And the MIC (Enterococcus faecium [28])?
A: Its MIC is 8 µg/mL.

Q: What about the MIC (Staphylococcus aureus) of the same compound?
A: Its MIC is 4 µg/mL.

Q: What about the “fractional inhibitory concentration index (FICI)” value (Enterococcus faecium [29]) of the same compound?
A: The value was 1.5.

Q: And the “fold change (FC)” value (Pseudomonas aeruginosa [30])?
A: The value was 8.

Q: What about the fold change (FC) (Escherichia coli [31]) of the same compound?
A: The fold change (FC) was 2048.

Q: What about the Activity (Cell membrane) of the same compound?
A: The Activity was “Dose-Dependent Effect”.

Q: And the “fold change (FC)” value (Pseudomonas aeruginosa [32])?
A: The value was “>=2”.

Q: What about the “fold change (FC)” value (Acinetobacter baumannii [33]) of the same compound?
A: The value was 64.

Q: What about the Activity (Acinetobacter baumannii [34]) of the same compound?
A: The Activity was “inactive”.
